Tests used:
[1] = Fluorescence in water, ethanol and acetone (aggregation-induced luminescence); format: physicochemical
Description: Fluorescence spectra were measured on a Perkin Elmer LS95, HITACH F-4500, and Edinburgh FLS920 fluorescence spectrometers at room temperature with laterally collection of fluorescence. Fluorescence lifetime was measured using the Edinburgh FLS920 fluorescence spectrometer. Two-photon fluorescence utilized laser pulses emitted by a Ti: sapphire Mira900-F mode-locked laser as the irradiation light source with a repetition frequency of 76 MHz and a pulse width of 200 fs using the SpectroPro 300i spectrometer to collect fluorescence laterally. […] All the test utilized 1.0 cm×1.0 cm Quartet pass quartz crystal cuvette. Reagents used to prepare solutions are either spectroscopic or chromatographic purified.
It can be seen that the fluorescence intensity of BHVC in aqueous solution is very weak and the fluorescence emission peak is at 627 nm. However, the fluorescence intensity in ethanol solution with the same concentration of BHVC increases by 30 times, and the fluorescence emission peak red-shifted to 631 nm. In fact, ethanol is a poor solvent for BHVC. Therefore, BHVC exists in the form of aggregates in ethanol solvent.

[2] = tested on: ctDNA; assay: ctDNA detection by fluorescence of the probe in Tris-HCl/KCl buffer pH 7.2; format: binding
Description: First, a buffer solution of pH 7.2 is prepared, the preparation process of which is as follows: 394 mg of Tris-HCl and 1.863 g of KCl are added to a 250 ml beaker, and deionized water is added to prepare a buffer solution containing 10 mmol/L Tris-HCl and 100 mmol/L KCl and of pH 7.2 buffer solution.
Then, the buffer solution was used to prepare 0-500 μg/ml ctDNA aqueous solutions, wherein the BHVC content was maintained at 5×10^−6 mol/L.
Taking deionized water solution with ctDNA content of 100 μg/ml as an example, the specific preparation process is described as follows: First, […] compound BHVC was added to a 100 ml volumetric flask, followed by the addition of 100 ml pH 7.2 buffer solution to formulate to a BHVC buffer solution of concentration of 10^−4 mol/L, then 1 ml the above solution was removed to dilute to 10 ml so that the concentration of BHVC was 10^−5 mol/L, 5 ml of this solution was taken and added to a clean spawn bottle.
Then […] ctDNA was taken and added to 10 ml volumetric flask, buffer was added to formulate as 100 μg/ml ctDNA solution, 1 ml this solution was taken, and then added to 4 ml buffer solution, the ctDNA concentration is diluted to 20 μg/ml, the ctDNA solution was added dropwise to the BHVC buffer solution previously placed in the spawn bottle under vigorous stirring. After the addition was completed, the ctDNA solution was allowed to stand still for 2 hours and its UV-Vis absorption and fluorescence spectra were measured.
Based on the study of the absorption and aggregation-induced luminescence properties of BHVC, the fluorescence occurrence behavior of BHVC buffer solution with different ctDNA concentrations was studied with a buffer solution of pH 7.2 and containing 10 mmol/L Tris-HCl and 100 mmol/L KCl, the changes in the detected fluorescence spectrum are shown in FIG. 3 (a). It can be seen from the figure: as the ctDNA concentration increases, the fluorescence intensity of the solution gradually increases, and the fluorescence peak is blue-shifted. When the content of ctDNA changed from 0 μg/ml to 50 μg/ml, the maximum emission peak of fluorescence spectrum shifted from 633 nm to 598 nm, that is blue shifted […]. When the ctDNA concentration was more than 50 μg/ml, the blue shift of the peak of the fluorescence spectrum appeared inflection point, the rate of change slowed down. When the ctDNA content was 500 μg/ml, the peak shifted to 576 nm, which was a blue shift of […] relative to the fluorescence spectrum of a 50 μg/ml DNA solution (FIG. 3 (b)).
The trend in the change of fluorescence intensity of the solution is shown in FIG. 4 (A), with the ctDNA concentration increases, the fluorescence intensity of the solution can be divided into two intervals. […]

[3] = UV-Vis absorption of aqueous solutions at different concentrations (solubility); format: physicochemical; conditions: 10^-6 to 10^-4 mol/L, no shift of UV absorption spectrum
From the text: The UV-vis absorption spectra of aqueous solutions of different concentrations of BHVC are shown in FIG. 1, the absorption peak at […] is derived from the absorption of the two cross-shaped skeletons of BHVC, and the absorption peak at […] is the characteristic absorption peak of tetraphenylethylene group. When the concentration of BHVC in aqueous solution changed from 10^−6 mol/L to 10^−4 mol/L, there was no red-shift or blue-shift of the UV absorption spectrum of the solution. In general, the shift of the absorption peak of the π-conjugated chromophore solution is due to the π-π interaction between the molecules.

SMILES: CCn1c2cc(/C=C/c3cc[n+](C)cc3)ccc2c2ccc(/C=C/c3cc[n+](C)cc3)cc21.[I-].[I-] [BHVC, 2,7-bis (1-methyl-4-vinylpyridine)-9-ethylcarbazole iodised salt]
- increase of fluorescence intensity in ethanol versus aqueous solution ([1]; 10^-5 mol/L, excitation 420 nm): 30 times
- solvent quality of ethanol for the probe ([1]; ethanol, exists as aggregates): poor solvent
- Stern-Volmer constant Ksv ([2]; ctDNA 0-50 μg/ml linear interval, I/I0=Ksv[Q]+1, excitation 420 nm): 1.4×10^2
- blue shift of emission peak (to 576 nm) relative to 50 μg/ml DNA solution ([2]; ctDNA 500 μg/ml): 24 nm
- increase of fluorescence intensity relative to 0 μg/ml ctDNA ([2]; ctDNA 500 μg/ml, BHVC 5×10^-6 mol/L): 20 fold
- blue shift of maximum emission peak (633 nm to 598 nm) ([2]; ctDNA from 0 μg/ml to 50 μg/ml): 35 nm
- solubility in aqueous solution [3]: good solubility
